Experiments:
[1] = target: T1, CsJAMM (Candidatus Caldarchaeum subterraneum, UniProt E6N2R7); assay: SDS-PAGE of SAMP Csub_C0702 precursor cleavage; type: biochemical; settings: […] SAMP Csub_C0702, […] enzyme, […] °C, pH […] min preincubation
T1 construct: gene CSUB_C0703; N-terminal His6 tag with TEV site; synthetic gene, E. coli
T1 sequence (E6N2R7 1-140): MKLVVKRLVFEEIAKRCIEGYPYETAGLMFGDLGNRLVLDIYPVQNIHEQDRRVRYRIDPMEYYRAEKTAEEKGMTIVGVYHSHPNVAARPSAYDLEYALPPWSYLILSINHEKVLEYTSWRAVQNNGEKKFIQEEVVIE

[2] = target: T2, CsRpn11^Δ149–202 (Candidatus Caldarchaeum subterraneum, UniProt E6N8B9); assay: SDS-PAGE of CsUb-pre cleavage; type: biochemical; settings: 14 µM CsUb-pre, 1.75 µM enzyme, 45 °C, pH 7.5, 10 min preincubation; proposed coordination of catalytic Zn2+
T2 construct: gene CSUB_C1473; JAMM core domain, C-terminal residues 149-202 deleted (full length 202); N-terminal His6 tag with TEV site

[3] = target: truncated CsRpn11^Δ149–202 (Candidatus Caldiarchaeum subterraneum); assay: MST; 50 nM NT-647-labeled CsRpn11^Δ149–202 mixed with a serial 1:1 dilution of CsUb from 47 nM to 770 µM; 45 °C; Monolith NT.115, MST power 80%, laser intensity 40%; three independent experiments
[4] = target: truncated CsRpn11^Δ149–202 (Candidatus Caldiarchaeum subterraneum)

`CC(=O)Nc1c2sscc-2n(C)c1=O` [thiolutin] was tested, and the “SDS-PAGE of SAMP Csub_C0702 precursor cleavage” value [1] was “effects on CsJAMM-mediated CsSAMP processing were significantly weaker” and the “SDS-PAGE of CsUb-pre cleavage” value [2] was “CsUb-pre processing by CsRpn11 was strongly affected by both 8-TQ and thiolutin”.

In the case of “mature C. subterraneum ubiquitin CsUb (natural protein)”, the Kd [3] is reported as 14.6 µM.

With “CsUb precursor (CsUb-pre) (natural protein)” the KM of CsUb-pre cleavage by Co^2+-bound CsRpn11^Δ149–202 at 45 °C, quantified from SDS-PAGE bands [4] was 17.8 µM.

For `Sc1cccc2cccnc12` [8-thioquinoline], the “SDS-PAGE of SAMP Csub_C0702 precursor cleavage” value [1] was “effects on CsJAMM-mediated CsSAMP processing were significantly weaker” and the “SDS-PAGE of CsUb-pre cleavage” value [2] was “CsUb-pre processing by CsRpn11 was strongly affected by both 8-TQ and thiolutin”.

— paper PMC6043591, “Rpn11-mediated ubiquitin processing in an ancestral archaeal ubiquitination system” (Nature Communications, 2018)
